Measurements published in patent US12295973B2 (Fred Hutchinson Cancer Center, priority 2017, dated 2025).
Where a SMILES comes first, the peptide text is derived from it. [ ]: non-standard residue; d: D form. The star is where a group is joined. dPhe(4-NHCONH2) = NC(=O)Nc1ccc(C[C@@H](N)C(=O)O)cc1; Dihydroorotyl(S) = O=C1C[C@@H](C(=O)*)NC(=O)N1; dPhe(4-Cl) = N[C@H](Cc1ccc(Cl)cc1)C(=O)O; Phe(4-NH2) = Nc1ccc(C[C@H](N)C(=O)O)cc1; d2Nal = N[C@H](Cc1ccc2ccccc2c1)C(=O)O; Lys(iPr) = CC(C)NCCCC[C@H](N)C(=O)O; d3Pal = N[C@H](Cc1cccnc1)C(=O)O

Legend:
[1] = test system: hematopoietic stem and progenitor cell (HSPC) compartment; assay: Bone marrow analysis of the HSPC compartment after L-TBI (cellularity, flow cytometry); type: in vivo, mouse
Method: To investigate the specific regenerative effects mediated by LHRH-Ant treatment on the hematopoietic stem and progenitor cell (HSPC) compartment, BM were analyzed at several time points after L-TBI. […] To determine hematopoietic functional potential, colony-forming unit activity was next quantified to determine the effects of LHRH-Ant on the recovery of committed hematopoietic progenitor cells. […] Consistent with these functional findings, on day 14 after L-TBI, expansion of LSKs as well as their downstream progenitors in mice given LHRH-Ant were found (FIGS. 2F, 2G). […] However, given the changes in HSC phenotype after radiation, the standard competitive repopulation functional assay was adapted to evaluate the presence and relative quantity of functional HSCs after L-TBI. Specifically, all cells from the BM and spleen (to account for potential changes to circulating HSCs) were collected and transplanted from vehicle or LHRH-Ant treated mice at day 14 after L-TBI into irradiated hosts (along with a rescue dose of congenic WBM cells to ensure survival). This approach allowed detection of differences in the total number of residual HSCs which would be reflected by a functional difference in hematopoietic reconstitution.
Flow cytometry and cell cycle analysis: Monoclonal antibodies recognizing the following markers were used for flow cytometric analyses and cell sorting of murine cells (LSR II or FACSAria III, BD Biosciences): (from BD Pharmingen) c-kit (2B8), Sca-1 (D7), CD11b (M1/70), CD11c (HL3), CD19 (ID3), CD3ϵ (145-2C11), CD34 (RAM34), CD45 (30-F11), CD45.1 (A20), CD45.2 (104), CD48 (HM48-1), CD62L (MEL-14), CD135 (A2F10.1), Gr-1 (RB6-8C5), NK1.1 (PK136), TER-119 (TER-119); (from eBioscience) CD127 (A7R34), CD150 (mShad150); (from Invitrogen) B220 (RA3-6B2) and streptavidin (N/A). The mouse lineage antibody cocktail included anti-CD3, anti-CD4, anti-CD8α, anti-CD19, anti-CD11 b, anti-CD11c, anti-Gr-1, anti-NK1.1, and anti-TER119. The following antibodies were used for flow cytometry analyses of human samples, CD49f (eBioGoH3), CD45RA (L48), CD34 (581), CD38 (HIT2). CD90 (5E10), CD10 (H110a). The human lineage antibody cocktail included anti-CD3, anti-CD14, anti-CD16, anti-CD19, anti-CD20, anti-CD56. To detect human LHCGR a polyclonal anti-LHCGR (Alomone, cat #:ALR-010) was used. For intracellular Ki67/DAPI staining, BM cells were stained with surface markers, fixed, and permeabilized using the Fixation/Permeabilization kit (cat. 00552100 ebioscience) and permeabilization buffer (cat. 008333 ebioscience). Cells were then incubated with Ki67-Alexa 700 (B56) (from BD Biosciences) for 45 minutes at 4C. After centrifugation DAPI (5 μg/ml) was added to cells and allowed to incubate for at least 30 min at RT before analysis. […]

LT-HSCs = assay: Cell apoptosis by AnnexinV/DAPI staining after radiation exposure; type: in vivo, mouse; conditions: vs vehicle
Description: To further validate this hypothesis, two additional models were used to force HSCs out of their quiescence phase, Poly I:C and sub-lethal dose of total body irradiation (SL-TBI)^35,42,43. To eliminate any potential effects of downstream sex steroids on HSCs, all cohorts of mice in these studies had been surgically castrated.

[2] = test system: mice challenged with successive doses of 5-FU; assay: Mouse survival after serial 5-fluorouracil (5-FU) challenge; type: in vivo; conditions: 5-FU 150 mg/kg I.P. once every 7 days, 3 times
Description: To test whether this LHRH-Ant-mediated preservation of HSC quiescence and enhancement of HSC survival after hematopoietic stress could confer protection against chemotherapy-induced myeloablation, mice were challenged with successive doses of 5-fluorouracil (5-FU); a well-established method to functionally test HSC proliferation and self-renewal that leads to ablation of proliferating HSCs and ultimately death^29,34,47.
Reagents: Degarelix (as acetate), a LHRH-Ant (Firmagon), was resuspended in sterile water for injection and administered S.C. to mice at a dose of 40 mg/kg. To evaluate the radiomitigative effect of LHRH-Ant on survival, mice were treated subcutaneously (S.C.) with a single injection of the LHRH-Ant or a saline control solution (PBS). Degarelix was purchased from the Memorial Sloan-Kettering Cancer Center Pharmacy. […] LH from human pituitary (SIGMA) was resuspended in PBS for in vitro studies. MDV3100 (selleckchem) was resuspended in a mixture of 45% PBS, 45% PEG and 10% DMSO and administered daily to mice by oral gavage at a dose of 10 mg/kg. 5-FU (InvivoGen) was administered to mice intraperitoneally (I.P.) at a dose of 150 mg/kg once every 7 days consecutively for 3 times as previously described^34,47,49.

CC(=O)N[C@H](Cc1ccc2ccccc2c1)C(=O)N[C@H](Cc1ccc(Cl)cc1)C(=O)N[C@H](Cc1cccnc1)C(=O)N[C@@H](CO)C(=O)N[C@@H](Cc1ccc(NC(=O)[C@@H]2CC(=O)NC(=O)N2)cc1)C(=O)N[C@H](Cc1ccc(NC(N)=O)cc1)C(=O)N[C@@H](CC(C)C)C(=O)N[C@@H](CCCCNC(C)C)C(=O)N1CCC[C@H]1C(=O)N[C@H](C)C(N)=O [LHRH-Ant, Degarelix] (Ac-[d2Nal][dPhe(4-Cl)][d3Pal]S[Phe(4-NH2)](Dihydroorotyl(S))[dPhe(4-NHCONH2)]L[Lys(iPr)]P[dA]-NH2)
total BM cellularity ([1]; day 7 after L-TBI, vs vehicle): no difference
LSKs and their downstream progenitors ([1]; day 14 after L-TBI): expansion
LT-HSCs number ([1]; day 14 after L-TBI): significantly more LT-HSCs
BM cellularity ([1]; day 14 after radiation, vs vehicle): started to separate significantly from the vehicle group by day 14
proportion of live LT-HSCs (LT-HSCs): significantly increased the proportion of live LT-HSCs
survival after serial 5-FU challenge [2]: significantly improved survival
